AUC and Cmax data for one compound are collected here from patent publication US8466193B2, “Selective inhibitors of histone deacetylase” (Pharmacyclics, Inc., priority 2008, dated 2013).

The nature of the data set: Pharmacokinetic analysis in male rats, oral gavage. Type of data set: in vivo. Conditions: CD IGS (Sprague-Dawley derived), rat, plasma, orally at 3 mg/kg, compounds administered in combination. How it is done: This study, performed in male rats with test compounds (Compound 303 and Compound 316), was designed to provide preliminary information on their pharmacokinetics. The test compounds were administered in combination by oral gavage.
The specifications for rats used on this study are as follows: • Strain: CD® IGS rats (Sprague-Dawley derived) • Source: Charles River Laboratories • Surgical modification for oral dosing: One portal vein cannula and one jugular vein cannula • Body weight range at dosing 350 to 375 g
The rats were acclimatized to laboratory conditions for at least 24 hours before dosing. The evening before dosing, food was withheld from the rats and was returned immediately following the 3-hour blood collection time point. Water was provided ad libitum. The rats were housed individually in translucent polycarbonate cages.
Test compounds were prepared as 3.0 mg/ml solutions (1% MC/0.4% Cr EL in WFI).
Rats were administered a single dose of test compound in combination by oral gavage. Dose volumes were adjusted based on body weight data collected immediately prior to dosing.
The dose volume was 1 ml/kg and the nominal dosage was 3 mg/kg.
Blood samples were collected at 5 minutes, 20 minutes, 1 hour, 3 hours, 6 hours, 9 hours, and 24 hours post-dosing from orally dosed rats. The samples were collected into plasma separator Microtainer tubes with anticoagulant (lithium heparin). Plasma samples were prepared by centrifugation (5 min at 5000×g), and at least 100 μL were transferred to storage tubes and frozen on dry ice. Samples were maintained at approximately −75 C until prepared for analysis.
Plasma samples were thawed and 75 uL aliquots were transferred to centrifuge tubes to which 10 μL aliquots of internal standard solution (0.5 μg/mL) were added. The samples were not diluted with blank plasma prior to further processing. Soluble proteins were precipitated by the addition of 300 μL of methanol, followed by centrifugation (20 min at 16,000×g). The samples were evaporated to dryness and reconstituted in 100 μL of water containing 0.2% formic acid and 10% methanol. All samples were loaded onto an autosampler maintained at 6° C. and evaluated for concentrations of test compound using LC-MS/MS. lasma concentration data were evaluated using the computer program WinNonlin (Professional Edition, Pharsight Corporation, version 5.01). […]
Pan HDAC inhibitor 3-((dimethylamino)methyl)-N-(2-(4-(hydroxycarbamoyl)phenoxy)ethyl)benzofuran-2-carboxamide was added to the cassette to serve as a standard since the pharmacokinetics of this compound have been determined previously in rats. The UC's determined for rats administered Compound 303 and Compound 316 orally at 3 mg/kg were 1.42, and 5.36 μg·h/mL, respectively. […]

As usually defined, the AUC is concentration integrated over time. In general, Cmax refers to the peak of the concentration-time curve. Turning to `O=C(NO)c1ccc2ccn(CCOc3ccccc3)c2c1` [Compound 316, N-hydroxy-1-(2-phenoxyethyl)-1H-indole-6-carboxamide], the AUC came to 5360 ng·h/mL and the Cmax was 828 ng/mL.
